# Article PMC11855827, “High-Throughput Screening of Five Compound Libraries for Anthelmintic Activity and Toxicity Leads to the Discovery of Two Flavonoid Compounds” (International Journal of Molecular Sciences, 2025)
# Values joined by “and” are separate entries in the source; they are usually repeats but may differ in a detail not shown here. Equal values may be shown once. Read-outs that look alike come from different tables or passages of the source.
# Tested on: C. elegans
# [1] = Table S2, C. elegans SS assay, 110 μM, 0 h, averages of 4 data points
# [2] = Table S2, C. elegans SS assay, 110 μM, 24 h, averages of 4 data points
Compound,Percentage of motility inhibition 0 h [1],Percentage of motility inhibition 24 h [2],Percentage of motility inhibition 0 h (110 µM) [%],Percentage of motility inhibition 24 h (110 µM) [%]
Nc1ncnc2c1ncn2[C@H]1C[C@H](O)[C@@H](COP(=O)([O-])OP(=O)([O-])OP(=O)([O-])O)O1.[Na+].[Na+].[Na+],21%,0%,–,–
CC(=O)O[C@@H]1CC[C@@]2(C)[C@@H](CC[C@]3(C)[C@@H]2[C@H](O)C=C2[C@@H]4[C@@H](C)[C@H](C)CC[C@]4(C)CC[C@]23C)[C@@]1(C)C(=O)O,24%,23%,–,–
O=C(O)[C@@H]1C[C@@H](O)CN1,11%,0%,–,–
CC1(C)CC[C@]2(C(=O)O)CC[C@]3(C)C(=CC[C@@H]4[C@@]5(C)CC[C@H](O[C@@H]6O[C@H](C(=O)O)[C@@H](O)[C@H](O[C@@H]7OC[C@@H](O)[C@H](O)[C@H]7O[C@@H]7O[C@H](CO)[C@@H](O)[C@H](O)[C@H]7O)[C@H]6O)C(C)(C)[C@@H]5CC[C@]43C)[C@@H]2C1,0%,0%,–,–
O=c1c(O[C@@H]2O[C@H](CO)[C@@H](O)[C@H](O)[C@H]2O)c(-c2ccc(O)c(O)c2)oc2cc(O[C@@H]3O[C@H](CO[C@@H]4O[C@H](CO)[C@@H](O)[C@H](O)[C@H]4O)[C@@H](O)[C@H](O)[C@H]3O)cc(O)c12,–,–,0,0
CN[C@@H]1[C@H](O)[C@H](NC)[C@H]2O[C@@]3(O)C(=O)C[C@@H](C)O[C@H]3O[C@@H]2[C@H]1O.Cl.Cl.O.O.O.O.O,16%,2%,–,–
C[C@@H]1O[C@@H](O[C@@H]2[C@@H](O)[C@H](O[C@H]3CC[C@]4(C)[C@H]5CC=C6[C@@H]7CC(C)(C)CC[C@]7(C(=O)O[C@@H]7O[C@H](CO)[C@@H](O)[C@H](O)[C@H]7O)CC[C@@]6(C)[C@]5(C)CC[C@H]4C3(C)C)O[C@H](C(=O)O)[C@H]2O)[C@H](O)[C@H](O)[C@H]1O,6%,0%,–,–
Nc1ccc(C(=O)[O-])c(O)c1.O.O.[Na+],24%,6%,–,–
4'‐O‐Methylbavachalcone,19%,3%,–,–
Nc1nc(=O)c2c([nH]1)NCC(CNc1ccc(C(=O)N[C@@H](CCC(=O)O)C(=O)O)cc1)N2C=O (mixture of isomers) [Folinic acid],11%,20%,–,–
COc1ccc([C@@H]2CC(=O)c3c(O)cc(O)cc3O2)cc1O (racemic) [(Rac)‐Hesperetin],0%,0%,–,–
COc1cc(C2Oc3ccc(-c4cc(=O)c5c(O)cc(O)cc5o4)cc3OC2CO)ccc1O (racemic) [(Rac)‐Hydnocarpin],7%,0%,–,–
c1cncc([C@@H]2CCCCN2)c1 (racemic) [(±) Anabasine],3%,0%,–,–
CN1c2ccccc2C(=O)N2CCc3c([nH]c4ccccc34)[C@@H]21 (racemic) [(±)‐Evodiamine],0%,12%,–,–
Cl.c1cc2c(c3c1CC1c4cc5c(cc4CCN1C3)OCO5)OCO2 (racemic) [(±)‐Stylopine (hydrochloride)],0%,3%,–,–
c1cc2c(c3c1C[C@H]1c4cc5c(cc4CCN1C3)OCO5)OCO2 (racemic) [(±)‐Stylopine],0%,31%,–,–
O[C@H]1CCN2Cc3ccccc3N=C12 (racemic) [(±)‐Vasicine],3%,31%,–,–
NC(N)=NCCCC(N)C(=O)O (racemic) [DL-Arginine],4%,0%,–,–
OC[C@@H](O)[C@@H](O)[C@H](O)[C@H](O)CO (racemic) [DL-Mannitol],0%,15%,–,–
CC1CCC(C(C)C)C(O)C1 (racemic) [DL-Menthol],27%,0%,–,–
O=C[C@H](O)[C@@H](O)[C@H](O)CO (racemic) [DL-Xylose],0%,5%,–,–
Cc1c(C)c2c(c(C)c1O)CCC(C)(CCCC(C)CCCC(C)CCCC(C)C)O2 (racemic) [DL-alpha-Tocopherol],5%,9%,–,–
O=C(Nc1ccccc1F)N[C@H]1N=C(c2ccccc2)c2ccccc2NC1=O (racemic) [RSV604 (racemate)],23%,13%,–,–
CN1[C@H]2C[C@H](OC(=O)[C@H](CO)c3ccccc3)C[C@@H]1[C@@H](O)C2 (racemic) [Racanisodamine],–,0% and 6%,–,–
"COC1=CC(=O)OC(/C=C/c2ccccc2)C1 (single isomer, unassigned; (+)) [(+)-Kavain]",5%,13%,–,–

Compound,Percentage of motility inhibition 0 h [1],Percentage of motility inhibition 24 h [2],Percentage of motility inhibition 0 h (110 µM) [%],Percentage of motility inhibition 24 h (110 µM) [%]
"CC1(C)C(=O)[C@]2(C)CCC1C2 (single isomer, unassigned; (-)) [(-)-Fenchone]",26%,22%,–,–
"CC1CCC(C(C)C)C(O)C1 (single isomer, unassigned; (-)) [(-)-Menthol]",7% and 6%,–,–,–
C[C@H]1O[C@@H](O[C@@H]2CC[C@@]3(C)[C@@H](CC[C@]4(C)[C@@H]3C=C[C@]35OC[C@@]6(CCC(C)(C)C[C@H]63)[C@@H](O)C[C@]54C)[C@@]2(C)CO)[C@H](O)[C@@H](O)[C@H]1O (stereo in doubt) [Prosaikogenin G],2%,34%,–,–
CC=C1[C@H](O[C@@H]2O[C@H](CO)[C@@H](O)[C@H](O)[C@H]2O)OC=C(C(=O)OC)[C@H]1CC(=O)OC[C@H]1O[C@@H](OCCc2ccc(O)cc2)[C@H](O)[C@@H](O)[C@@H]1O (stereo in doubt) [Specneuzhenide],3%,31%,–,–
CC=C1[C@H](O[C@@H]2O[C@H](CO)[C@@H](O)[C@H](O)[C@H]2O)OC=C(C(=O)OC)[C@H]1CC(=O)OC[C@H]1O[C@@H](OCCc2ccc(O)cc2)[C@H](O)[C@@H](O)[C@@H]1O (stereo in doubt) [Specnuezhenide],1%,13%,–,–
"Cc1ccn(C)n1 [1,3‐Dimethylpyrazole]",6%,3%,–,–
CCCCCCCCCCCCCCCCCCCCCCO [1-Docosanol],7%,8%,–,–
c1cn[nH]c1 [1H‐pyrazole],0%,21%,–,–
"CC(C)C1=CC2C(CCC2(C)O)C(C)(O)CC1 (stereo not drawn) [1αH,5αH-Guaia-6-ene-4β,10β-diol]",0%,27%,–,–
O=C(/C=C/c1ccc(O)c(O)c1)OC1(C(=O)O)C[C@@H](O)C(O)[C@H](O)C1 (stereo partly drawn) [1‐Caffeoylquinic acid],24%,0%,–,–
Cl.OC[C@H]1NC[C@@H](O)[C@@H](O)[C@@H]1O [1‐Deoxymannojirimycin (hydrochloride)],32%,11%,–,–
Cn1cnc2c(ncn2[C@@H]2O[C@H](CO)[C@@H](O)[C@H]2O)c1=N [1‐Methyladenosine],7%,0%,–,–
CCCCCc1cc(=O)c2ccccc2n1C [1‐Methyl‐2‐pentyl‐4(1H)‐quinolinone],44%,30%,–,–
"O=C(O[C@H]1[C@H](Oc2c(-c3ccc(O)c(O)c3)oc3cc(O)cc(O)c3c2=O)O[C@H](CO)[C@H](O)[C@@H]1O)c1cc(O)c(O)c(O)c1 [2""‐O‐Galloylhyperin]",32%,1%,–,–
"O=c1cc(-c2ccc(O)c(O)c2)oc2c(C3OC(CO)C(O)C(O)C3OC3OC(CO)C(O)C(O)C3O)c(O)cc(O)c12 (stereo not drawn) [2""‐O‐beta‐L‐galactopyranosylorientin]",7%,0%,–,–
COc1ccc(-c2oc3c(CC=C(C)C)c(O)cc(O)c3c(=O)c2O[C@@H]2O[C@@H](C)[C@H](O)[C@@H](O)[C@H]2O[C@@H]2O[C@@H](C)[C@H](O)[C@@H](O)[C@H]2O)cc1 [2''‐O‐Rhamnosylicariside II],0%,13%,–,–
CC(=O)c1ccccc1O [2'‐Hydroxyacetophenone],0%,1%,–,–
"c1ccc2c(Cc3[nH]c4ccccc4c3Cc3c[nH]c4ccccc34)c[nH]c2c1 [2,3‐Bis(3‐indolylmethyl)indole]",21%,9%,–,–
"CCCCCC(=O)Oc1c(Br)cc(Br)cc1Br [2,4,6‐Tribromophenyl caproate]",48%,57%,–,–
"Cc1ccc2nc(C)ccc2c1 [2,6‐Dimethylquinoline]",0%,6%,–,–
OCc1ccc(O)cn1 [2‐Hydroxymethyl‐5‐hydroxypyridine],0%,0%,–,–
COc1ccc(-c2cc(=O)c3c(OC)c(OC)c(OC)c(OC)c3o2)cc1O [3'‐Demethylnobiletin],0%,0%,–,–
O=c1c(-c2ccc(O)c(O)c2)coc2c([C@@H]3O[C@H](CO)[C@@H](O)[C@H](O)[C@H]3O)c(O)ccc12 [3'‐Hydroxypuerarin],1%,0%,–,–
COc1cccc(-c2oc3ccccc3c(=O)c2O)c1 [3'‐Methoxyflavonol],9%,0%,–,–
